Test results from PMC5607274, “An iterative compound screening contest method for identifying target protein inhibitors using the tyrosine-protein kinase Yes” (Scientific Reports, 2017).

Target: T1, human recombinant Yes [a.a. 2–543 (end)] (Homo sapiens, UniProt P07947)
T1 construct: human recombinant Yes [a.a; 2–543 (end)]; purchased BPS Bioscience 40488
Test: ADP-Glo kinase assay, inhibition rates of Yes phosphorylation activity (first and second screening)
Type: biochemical
Conditions: 10 μmol L−1 compound; for First screening IR (inhibition rate): mean of n = 4 wells; for Second screening IR (inhibition rate): dissolved from fresh powder, n = 4
Procedure, shortened: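 Hits from a first pass were rescreened after re-dissolution from fresh powder. The first pass reported the mean inhibition rate of quadruplicate wells per compound. Activity was that of recombinant human Yes [a.a. 2–543] kinase, read out with the ADP-Glo ADP-detection method.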

T1 sequence (P07947 2-543): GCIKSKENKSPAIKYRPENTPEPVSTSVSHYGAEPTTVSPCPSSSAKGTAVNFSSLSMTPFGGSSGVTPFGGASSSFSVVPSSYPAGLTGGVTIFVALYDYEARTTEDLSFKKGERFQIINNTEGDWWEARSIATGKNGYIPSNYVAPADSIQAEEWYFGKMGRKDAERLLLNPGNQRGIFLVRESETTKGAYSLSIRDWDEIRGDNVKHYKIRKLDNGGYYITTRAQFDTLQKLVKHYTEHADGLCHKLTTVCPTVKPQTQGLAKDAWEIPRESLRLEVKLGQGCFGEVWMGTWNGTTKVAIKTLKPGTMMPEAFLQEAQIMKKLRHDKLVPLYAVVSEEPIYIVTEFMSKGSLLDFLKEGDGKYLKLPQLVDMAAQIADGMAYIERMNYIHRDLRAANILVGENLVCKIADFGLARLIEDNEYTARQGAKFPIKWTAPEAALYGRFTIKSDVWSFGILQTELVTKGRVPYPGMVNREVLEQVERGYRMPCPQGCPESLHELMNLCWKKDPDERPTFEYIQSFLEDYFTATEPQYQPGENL

## NC(=O)c1cc(-c2ccccc2)nc2c1cnn2Cc1ccc(Cl)cc1 [Compound Z116821638]
  First screening IR (inhibition rate): 1%

## COc1ccc(OC)c2c1CN(c1nc(CN3CCOCC3)nc3sc(C)c(C)c13)CC2O (stereo not drawn) [Compound Z128154998]
  First screening IR (inhibition rate): 47%
  Second screening IR (inhibition rate): -4%

## O=[N+]([O-])c1ccc(N2CCC(C(O)c3ncc[nH]3)CC2)nc1-c1ccccc1 (stereo not drawn) [Compound Z1823608663]
  First screening IR (inhibition rate): -51%

## CC(C)c1ccc(S(=O)(=O)NC(C)c2ccc(-n3ccnc3)cc2)cc1 (stereo not drawn) [Compound Z45488257]
  First screening IR (inhibition rate): -8%

## N#Cc1ccc(CN2CCN(Cc3c(-c4ccccc4)nc4sccn34)CC2)cc1 [Compound Z89137945]
  First screening IR (inhibition rate): -31%

## O=C(NCc1ccco1)c1cc(-c2cccnc2)nc2c1cnn2Cc1ccccc1Cl [Compound Z234860216]
  First screening IR (inhibition rate): 19%

## COc1ccc(S(=O)(=O)N(C)Cc2ccc3c(c2)OCO3)cc1Br [Compound Z74745150]
  First screening IR (inhibition rate): -25%

## COc1ccc(Nc2nc(-c3ccc(Cl)s3)cs2)cc1 [Compound Z48857068]
  First screening IR (inhibition rate): 4%

## Fc1ccc(/C=C2/CCCc3c2nc2ncnn2c3-c2ccc(F)cc2)cc1 [Compound Z56784264]
  First screening IR (inhibition rate): 8%

## Cc1cccn2cc(-c3ccc(NC(=O)c4ccc(=O)[nH]c4)cc3)nc12 [Compound Z666279820]
  First screening IR (inhibition rate): -9%

## Cc1cn2c(/C=C/C(=O)c3ccc(OCC(=O)N(C)C)cc3)c(C)nc2s1 [Compound Z196370782]
  First screening IR (inhibition rate): -2%

## Cc1nc(-c2cccc(NC(=O)CC(NC(N)=O)c3ccc(Cl)cc3)c2)cs1 (stereo not drawn) [Compound Z52058293]
  First screening IR (inhibition rate): -6%

## O=C(CSc1nc2ccccc2[nH]1)NC(=O)NCc1ccccc1 [Compound Z19649872]
  First screening IR (inhibition rate): 7%

## O=C(Cc1csc(Cc2ccccc2)n1)Nc1cccc(Cn2ccnc2)c1 [Compound Z383523130]
  First screening IR (inhibition rate): 46%

## CS(=O)(=O)c1ccc(S(=O)(=O)N2CCCC2)cc1 [Compound Z285664940]
  First screening IR (inhibition rate): 8%

## CN(C(=O)c1ccc(C2SCCCS2)cc1)c1ccc(C(N)=O)cc1 [Compound Z740420934]
  First screening IR (inhibition rate): 0%

## CC(CCN1CCN(c2ccccc2)CC1)NC(=O)c1cc(-c2ccco2)nc2c1cnn2C(C)C (stereo not drawn) [Compound Z385234634]
  First screening IR (inhibition rate): 62%
  Second screening IR (inhibition rate): 1%

## Cn1nc(C2CCC2)cc1NC(=O)c1cc(Br)cnc1Cl [Compound Z1433129748]
  First screening IR (inhibition rate): 0%

## COc1ccc(Br)c(CN(C)C(C)C2CCN(C)CC2)c1 (stereo not drawn) [Compound Z1682981267]
  First screening IR (inhibition rate): 2%

## NC(=O)COC(=O)c1cc(-c2ccccc2)nc2c1cnn2Cc1ccccc1 [Compound Z228517946]
  First screening IR (inhibition rate): 4%

## Nc1nc(CSc2ncc(-c3ccc(F)cc3)o2)nc2ccccc12 [Compound Z226851604]
  First screening IR (inhibition rate): -34%

## Cc1ccc(N2C(=O)Cc3c2nc(N)c2c(N)nc(N4CCCC4)c(C#N)c32)cc1C [Compound Z55589600]
  First screening IR (inhibition rate): 15%

## CC1C/C(=C/c2ccccc2[N+](=O)[O-])c2nc3ccccc3c(C(=O)O)c2C1 (stereo not drawn) [Compound Z46107814]
  First screening IR (inhibition rate): 10%

## O=C(Nc1cccc(COc2cccc(F)c2)c1)c1ccc(=O)[nH]n1 [Compound Z383786992]
  First screening IR (inhibition rate): -2%

## Cc1cc(CN2CCSCC2)ccc1NC(=O)c1ccnc(N(C)C)c1 [Compound Z978895402]
  First screening IR (inhibition rate): 0%

## Cn1ncc2c(N3CCOC(c4ccc(F)cc4)C3)ncnc21 (stereo not drawn) [Compound Z319092016]
  First screening IR (inhibition rate): -2%

## c1ccc(-c2nc3c4ccccc4c4ccccc4c3n2-c2ccccc2)cc1 [Compound Z56798059]
  First screening IR (inhibition rate): 6%

## CC(C)(C)n1cc(C(=O)NCc2ccc(-c3cccnc3)cc2)cn1 [Compound Z1276379731]
  First screening IR (inhibition rate): 5%

## CC1Cc2cc(C(=O)NC3(C)CCS(=O)(=O)C3)ccc2N1S(C)(=O)=O (stereo not drawn) [Compound Z89460412]
  First screening IR (inhibition rate): 10%

## Cc1nn(C2CCS(=O)(=O)C2)c2nc(C3CC3)cc(C(=O)NCc3ccc4c(c3)OCO4)c12 (stereo not drawn) [Compound Z60362928]
  First screening IR (inhibition rate): 5%

## CN(Cc1ccc(F)cc1F)C(=O)c1cc(-c2ccccc2)nc2c1cnn2Cc1ccncc1 [Compound Z283846026]
  First screening IR (inhibition rate): 11%

## CC(Sc1ncn(-c2ccccc2)n1)c1nc(N)nc(N(C)C)n1 (stereo not drawn) [Compound Z317369924]
  First screening IR (inhibition rate): -4%

## O=C(COc1ccc(-c2cc(-c3ccccc3)c3cc(Cl)ccc3n2)cc1)NCCO [Compound Z57805545]
  First screening IR (inhibition rate): 39%

## Cc1ccc(-c2cc(C(=O)NC(c3ccccc3F)c3nccn3C)c3cnn(C(C)C)c3n2)s1 (stereo not drawn) [Compound Z225919834]
  First screening IR (inhibition rate): -2%

## CCN(C1CCS(=O)(=O)C1)S(C)(=O)=O (stereo not drawn) [Compound Z133704180]
  First screening IR (inhibition rate): 8%

## NS(=O)(=O)c1ccc(Cl)c(S(N)(=O)=O)c1 [Compound Z56877166]
  First screening IR (inhibition rate): 0%

## Cc1c(Nc2ccc(/C=C3/C(=O)Nc4ccc(Cl)cc43)cc2)c(=O)n(-c2ccccc2)n1C [Compound Z46051719]
  First screening IR (inhibition rate): 15%

## Cc1cc(C(=O)CCC(=O)Nc2nc3c(s2)CN(C)CC3)c(C)s1 [Compound Z169940730]
  First screening IR (inhibition rate): 5%

## CCc1ccc(-c2cc(-c3ccccc3)c3c(n2)/C(=C\c2ccc(N(C)C)cc2)CCC3)cc1 [Compound Z56830412]
  First screening IR (inhibition rate): -14%

## COc1ccc(/C=N/Nc2ncnc3sc(C)c(C)c23)cc1O [Compound Z49890825]
  First screening IR (inhibition rate): 4%

## CCc1nnc2n1CCN(CC(=O)NC1CCCc3ccccc31)C2 (stereo not drawn) [Compound Z1139436344]
  First screening IR (inhibition rate): -6%

## CC(C)c1ccc(N2C(=O)Cc3c2nc(N)c2c(N)nc(N4CCCC4)c(C#N)c32)cc1 [Compound Z55589601]
  First screening IR (inhibition rate): 6%

## O=C(CCNC(=O)c1cccs1)Nc1ccc2nc(-c3cccc(F)c3)[nH]c2c1 [Compound Z594945904]
  First screening IR (inhibition rate): -4%

## Cc1cc(C(=O)Nc2nc3ccccc3n2C2CCCC2)nn1C [Compound Z1251687771]
  First screening IR (inhibition rate): 9%

## O=c1c2ccc3c(=O)n4c5cccc6cccc(nc4c4ccc(c2c34)c2nc3ccccc3n12)c65 [Compound Z56768422]
  First screening IR (inhibition rate): -6%

## CN1CCN(S(=O)(=O)CCS(C)(=O)=O)CC1 [Compound Z1238645651]
  First screening IR (inhibition rate): -2%

## CN1C/C(=C/c2ccc(F)cc2)c2nc3ccccc3c(C(=O)O)c2C1 [Compound Z46114693]
  First screening IR (inhibition rate): -2%

## O=C(CCc1c[nH]c2ccccc12)Nc1ccc(F)c([N+](=O)[O-])c1 [Compound Z32407809]
  First screening IR (inhibition rate): 4%

## CCOC(=O)c1cc(-c2ccc(C#N)cc2)nc2c1c(C)nn2CCC#N [Compound Z56631499]
  First screening IR (inhibition rate): -7%

## COc1cc(/C=N/NC(=O)c2cccnc2)ccc1OC(=O)c1cccnc1 [Compound Z49575448]
  First screening IR (inhibition rate): 10%

## COc1cccc(/C=C2\CCCc3c2nc2ccccc2c3C(=O)O)c1 [Compound Z46035772]
  First screening IR (inhibition rate): 11%

## Cc1nn(-c2ccccc2)c2sc(C(=O)NCc3ccccn3)cc12 [Compound Z30166588]
  First screening IR (inhibition rate): 1%

## CC1CCN(c2ccc(NC(C)C(=O)Nc3cccc([N+](=O)[O-])c3)cc2)CC1 (stereo not drawn) [Compound Z132693290]
  First screening IR (inhibition rate): 26%

## O=S(=O)(Nc1ccc(N2CCOCC2)cc1)c1ccc(Cl)c(C(F)(F)F)c1 [Compound Z45660528]
  First screening IR (inhibition rate): -2%

## Cn1c(=O)n(CCN2CCOCC2)c(=O)c2c1nc1n2CCN1c1ccc(Oc2ccccc2)cc1 [Compound Z223838602]
  First screening IR (inhibition rate): 49%
  Second screening IR (inhibition rate): -4%

## Cc1cc(NC(=O)Cn2nc(C)c(S(=O)(=O)N3CCCCC3)c2C)no1 [Compound Z92593810]
  First screening IR (inhibition rate): -4%

## Cc1cc(C(=O)CSCc2nc(N)nc(N(C)C)n2)c(C)n1C1CC1 [Compound Z197454120]
  First screening IR (inhibition rate): 4%

## COc1ccc(/C(O)=C2\C(=O)C(=O)N(CCCn3ccnc3)C2c2cccnc2)cc1OC (stereo not drawn) [Compound Z335452550]
  First screening IR (inhibition rate): -9%

## Cc1cccc(-c2nc(C(C)C)no2)c1NC(=O)CCc1ccccc1 [Compound Z1082320758]
  First screening IR (inhibition rate): 4%

## Cc1ccc(Nc2ccnc(Nc3ccc(C)cc3)n2)cc1 [Compound Z118512882]
  First screening IR (inhibition rate): -5%

## O=S(=O)(c1cccc(Cl)c1Cl)N1CCN(Cc2nc(-c3ccc(F)cc3)no2)CC1 [Compound Z52670207]
  First screening IR (inhibition rate): -5%

## Cc1sc2nc(CN3CCC(C)CC3)nc(N3CCN(C(=O)c4ccccc4O)CC3)c2c1C [Compound Z381659312]
  First screening IR (inhibition rate): -12%

## O=C1CCc2cc(C(=O)Nc3nnc(SCc4c(Cl)cccc4Cl)s3)ccc2N1 [Compound Z164941068]
  First screening IR (inhibition rate): -3%

## Oc1cncc(/C=C/c2nc(-c3ccc(Oc4ccc(F)cc4)nc3)no2)c1 [Compound Z1642148338]
  First screening IR (inhibition rate): -13%

## CCN(CC)CCn1c(NC(=O)c2ccc(OCC(F)(F)F)nc2)nc2ccccc21 [Compound Z228032620]
  First screening IR (inhibition rate): 14%

## O=C1Cc2cc(Nc3nccc(C(F)(F)F)n3)ccc2N1 [Compound Z1199266078]
  First screening IR (inhibition rate): 13%

## Cc1nc2n(n1)CC(NCc1cn[nH]c1-c1ccc(C)o1)CC2 (stereo not drawn) [Compound Z1051950052]
  First screening IR (inhibition rate): 20%

## COc1cc(/C=N/Nc2ccnc3cc(Cl)ccc23)ccc1OC(F)F [Compound Z49626092]
  First screening IR (inhibition rate): -10%

## COc1ccc(/C=C2/CCCc3c2nc2ccccc2c3C(=O)O)cc1 [Compound Z46035754]
  First screening IR (inhibition rate): 9%
